Results: patent publication US20250057802A1, “BROAD-SPECTRUM ANTIVIRAL DRUGS” (FRAUNHOFER-GESELLSCHAFT ZUR FÖRDERUNG DER ANGEWANDTEN …, priority 2021, published 2025)

Key:
[1] = tested on: HEp-2 cells; assay: in vitro cytotoxicity analysis (CellTiter-Glo Luminescent Cell Viability Assay); assay type: cell-based, human; parameters: unit not given here; conditions: without RSV-infection, 48 h post-treatment
Description: FIG. 1A, FIG. 2A, FIG. 3A, FIG. 4A, FIG. 5A, and FIG. 6A show dose-response curves for identified inhibitors against RSV. RSV was incubated with increasing concentrations of compounds for 10 min at 37° C. before the compound-virus mixtures were added to human epithelial cells (HEp-2). 2 dpi, infection rates were measured by counting infected cells. Vehicle-treated cells were set as the reference at 100% and used to normalize the data. Shown values represent mean±SD (n=3). The IC50 was determined by fitting the data to a dose-response curve using nonlinear regression analysis (GraphPad Prism, version 6.02). FIG. 1B, FIG. 2B, FIG. 3B, FIG. 4B, FIG. 5B, and FIG. 6B show dose-response curves for identified inhibitors (the same as identified at the top of the respective figures) in in vitro cytotoxicity analysis. HEp-2 cells were treated with increasing concentration of compounds without RSV-infection to assess potential cytotoxicity of the compounds. 48 h post-treatment cells were analyzed using CellTiter-Glo® Luminescent Cell Viability Assay (Promega) to determine cell viability rates. Vehicle-treated cells were set as the reference at 100% of viability and used to normalize the data. Shown values represent mean+SD (n=3).

[2] = tested on: RSV; assay: in vitro RSV inhibitory assay (virus pre-incubated with compound, HEp-2 cells, infected cells counted); assay type: cell-based, Human orthopneumovirus (RSV); conditions: human respiratory syncytial virus, 10 min; RSV incubated with compound 10 min at 37° C., added to HEp-2 cells, 2 dpi
[3] = stability in solution; assay type: physicochemical; conditions: 500 μM in DMSO/PBS (5:95 v/v); room temperature or 37° C.; versus 4,5-DCQA (reference)
[4] = tested on: SARS-CoV-2; assay: SARS-CoV-2 viral inhibition assay on Vero E6 cells; assay type: cell-based; conditions: Severe acute respiratory syndrome coronavirus 2, Vero C1008, virus incubated with compound 10 min at 37° C., 27 hours post-infection

Row | SMILES | Cytotoxic concentration on HEp-2 cells [1] | IC50 [2] [nM] | stability in solution [3] | IC50 [4] [nM]
1 | O=C(NCCCNC(=O)c1cc(O)c(O)c(O)c1)c1cc(O)c(O)c(O)c1 [Compound 14, 3,4,5-trihydroxy-N-[3-[(3,4,5-trihydroxybenzoyl)amino]propyl]benzamide] | 15677 | 367 | – | –
2 | O=C(OCC(O)COC(=O)c1cc(O)c(O)c(O)c1)c1cc(O)c(O)c(O)c1 [Compound 7, [2-hydroxy-3-(3,4,5-trihydroxybenzoyl)oxy-propyl]3,4,5-trihydroxybenzoate] | >80000 | 339 | – | –
3 | CC(CNC(=O)c1ccc2c(c1)OCO2)(CNC(=O)c1ccc2c(c1)OCO2)CNC(=O)c1ccc2c(c1)OCO2 [Compound 21, N-[3-(1,3-benzodioxole-5-carbonylamino)-2-[(1,3-benzodioxole-5-carbonylamino)-methyl]-2-methyl-propyl]-1,3-benzodioxole-5-carboxamide] | >80000 | – | – | –
4 | NC(COC(=O)c1cc(O)c(O)c(O)c1)COC(=O)c1cc(O)c(O)c(O)c1 [Compound 8, [2-amino-3-(3,4,5-trihydroxybenzoyl)oxy-propyl]3,4,5-trihydroxybenzoate] | 66234 | 87.7 | – | –
5 | O=C(OCCCCCCCCOC(=O)c1cc(O)c(O)c(O)c1)c1cc(O)c(O)c(O)c1 [Compound 3, 8-(3,4,5-trihydroxybenzoyl)oxyoctyl 3,4,5-trihydroxybenzoate] | 9197 | 145 | – | –
6 | O=C(O[C@@H]1CCC[C@H](OC(=O)c2cc(O)c(O)c(O)c2)C1)c1cc(O)c(O)c(O)c1 [Compound 6, [(1R,3S)-3-(3,4,5-trihydroxybenzoyl)oxycyclohexyl]3,4,5-trihydroxybenzoate] | 61709 | 165 | – | –
7 | CC(CNC(=O)c1ccc(O)cc1)(CNC(=O)c1ccc(O)cc1)CNC(=O)c1ccc(O)cc1 [Compound 19, 4-hydroxy-N-[3-[(4-hydroxybenzoyl)amino]-2-[[(4-hydroxybenzoyl)amino]methyl]-2-methyl-propyl]benzamide] | >80000 | – | – | –
8 | O=C(OCCCOC(=O)c1cc(O)c(O)c(O)c1)c1cc(O)c(O)c(O)c1 [Compound 1, 3-(3,4,5-trihydroxybenzoyl)oxypropyl 3,4,5-trihydroxybenzoate] | 72737 | 129 | – | –
9 | O=C(NCCCCCNC(=O)c1cc(O)c(O)c(O)c1)c1cc(O)c(O)c(O)c1 [Compound 15, 3,4,5-trihydroxy-N-[5-[(3,4,5-trihydroxybenzoyl)amino]pentyl]benzamide] | 45401 | 408 | – | –
10 | O=C(OCCOCCOC(=O)c1cc(O)c(O)c(O)c1)c1cc(O)c(O)c(O)c1 [Compound 5, 2-[2-(3,4,5-trihydroxybenzoyl)oxyethoxy]ethyl 3,4,5-trihydroxybenzoate] | 638066 | 9330 | – | –
11 | CC(CNC(=O)c1ccc(O)c(O)c1)(CNC(=O)c1ccc(O)c(O)c1)CNC(=O)c1ccc(O)c(O)c1 [Compound 23, N-[3-[(3,4-dihydroxybenzoyl)amino]-2-[[(3,4-dihydroxybenzoyl)amino]methyl]-2-methyl-propyl]-3,4-dihydroxy-benzamide] | >80000 | 35.7 | improved stability | 26
12 | CC(COC(=O)c1ccccc1)(COC(=O)c1ccccc1)COC(=O)c1cc(O)c(O)c(O)c1 [Compound 13, [3-benzoyloxy-2-(benzoyloxymethyl)-2-methyl-propyl]3,4,5-trihydroxybenzoate] | 13042 | 480 | – | –
13 | CC(COC(=O)c1cc(O)c(O)c(O)c1)(COC(=O)c1cc(O)c(O)c(O)c1)COC(=O)c1cc(O)c(O)c(O)c1 [Compound 11, [2-methyl-3-(3,4,5-trihydroxybenzoyl)oxy-2-[(3,4,5-trihydroxybenzoyl)oxymethyl]-propyl]3,4,5-trihydroxybenzoate] | 47303 | 36.7 | – | –
14 | CC(CNC(=O)c1cccc(O)c1O)(CNC(=O)c1cccc(O)c1O)CNC(=O)c1cccc(O)c1O [Compound 24, N-[3-[(2,3-dihydroxybenzoyl)amino]-2-[[(2,3-dihydroxybenzoyl)amino]methyl]-2-methyl-propyl]-2,3-dihydroxy-benzamide] | 5822.5 | – | – | –
15 | CC(CNC(=O)c1cccc(O)c1)(CNC(=O)c1cccc(O)c1)CNC(=O)c1cccc(O)c1 [Compound 20, 3-hydroxy-N-[3-[(3-hydroxybenzoyl)amino]-2-[[(3-hydroxybenzoyl)amino]methyl]-2-methyl-propyl]benzamide] | 76260 | – | – | –
16 | O=C(OCCCCCOC(=O)c1cc(O)c(O)c(O)c1)c1cc(O)c(O)c(O)c1 [Compound 2, 5-(3,4,5-trihydroxybenzoyl)oxypentyl 3,4,5-trihydroxybenzoate] | >80000 | 4960 | – | –
17 | CC(COC(=O)c1ccccc1)(COC(=O)c1cc(O)c(O)c(O)c1)COC(=O)c1cc(O)c(O)c(O)c1 [Compound 12, [2-(benzoyloxymethyl)-2-methyl-3-(3,4,5-trihydroxybenzoyl)oxy-propyl]3,4,5-trihydroxybenzoate] | 34098.5 | 105 | – | –
18 | CC(CNC(=O)c1cc(O)c(O)c(O)c1)(CNC(=O)c1cc(O)c(O)c(O)c1)CNC(=O)c1cc(O)c(O)c(O)c1 [Compound 18, 3,4,5-trihydroxy-N-[2-methyl-3-[(3,4,5-trihydroxybenzoyl)amino]-2-[[(3,4,5-trihydroxy-benzoyl)amino]methyl]propyl]benzamide] | >80000 | 59.5 | – | –
19 | O=C(OCC(COC(=O)c1cc(O)c(O)c(O)c1)OC(=O)c1cc(O)c(O)c(O)c1)c1cc(O)c(O)c(O)c1 [Compound 9, 2,3-bis[(3,4,5-trihydroxybenzoyl)oxy]propyl 3,4,5-trihydroxybenzoate] | 49099.5 | 55.5 | – | –
20 | CC(C)(COC(=O)c1cc(O)c(O)c(O)c1)COC(=O)c1cc(O)c(O)c(O)c1 [Compound 4, [2,2-dimethyl-3-(3,4,5-trihydroxybenzoyl)oxy-propyl]3,4,5-trihydroxybenzoate] | 63163 | 162 | – | –
21 | O=C(OCC(COC(=O)c1cc(O)c(O)c(O)c1)COC(=O)c1cc(O)c(O)c(O)c1)c1cc(O)c(O)c(O)c1 [Compound 10, [3-(3,4,5-trihydroxybenzoyl)oxy-2-[(3,4,5-trihydroxybenzoyl)oxymethyl]propyl]3,4,5-trihydroxybenzoate] | 75145 | 47.2 | – | –
22 | O=C(NCCCCCCCCCCNC(=O)c1cc(O)c(O)c(O)c1)c1cc(O)c(O)c(O)c1 [Compound 16, 3,4,5-trihydroxy-N-[10-[(3,4,5-trihydroxybenzoyl)amino]decyl]benzamide] | >80000 | 767 | – | –
23 | O=C(NCCN(CCNC(=O)c1cc(O)c(O)c(O)c1)C(=O)c1cc(O)c(O)c(O)c1)c1cc(O)c(O)c(O)c1 [Compound 17, 3,4,5-trihydroxy-N-[2-[(3,4,5-trihydroxybenzoyl)-[2-[(3,4,5-trihydroxybenzoyl)-amino]-ethyl]amino]ethyl]benzamide] | 36216 | 155 | – | –
24 | O=C(/C=C/c1ccc(O)c(O)c1)O[C@@H]1[C@H](O)C[C@@](O)(C(=O)O)C[C@H]1OC(=O)/C=C/c1ccc(O)c(O)c1 [4,5-DCQA, reference compound] | >80000 | 1090 | – | 218
25 | CC(CNC(=O)c1ccc(O)cc1O)(CNC(=O)c1ccc(O)cc1O)CNC(=O)c1ccc(O)cc1O [Compound 22, N-[3-[(2,4-dihydroxybenzoyl)amino]-2-[[(2,4-dihydroxybenzoyl)amino]methyl]-2-methyl-propyl]-2,4-dihydroxy-benzamide] | 17473 | – | – | 75.1
